Measurements from the NIST ThermoML archive (doi:10.1021/acs.jced.6b00606).

Experiments:
[1] = xn = mol fraction of the nth substance listed; details: 100 kPa, Liquid; for speed of sound: Frequency=3 MHz, Sing-around technique in a fixed-path interferometer; for mass density: Vibrating tube method
[2] = excess molar enthalpy (molar enthalpy of mixing); xn = mol fraction of the nth substance listed; details: 308.15 K, 100 kPa, Liquid, Calvet calorimetry

O=C1CCCCC1 [cyclohexanone] + C1CCOCC1
[1]
Details	mass density, 293.15 K [kg/m3]	mass density, 298.15 K [kg/m3]	mass density, 303.15 K [kg/m3]	mass density, 308.15 K [kg/m3]	speed of sound, 293.15 K [m/s]	speed of sound, 298.15 K [m/s]	speed of sound, 303.15 K [m/s]	speed of sound, 308.15 K [m/s]
x2 = 0.1175	941.72	937.26	932.48	927.65	1411.4	1394.5	1373.6	1353.2
x2 = 0.1586	939.66	935.2	930.42	925.6	1404.6	1387.3	1366.3	1345.6
x2 = 0.1952	937.78	933.32	928.55	923.74	1398.7	1381	1359.7	1339.1
x2 = 0.2471	935.05	930.59	925.82	921.01	1390.5	1372.1	1350.7	1329.8
x2 = 0.2843	933.05	928.59	923.82	919.01	1384.6	1365.8	1344.4	1323.4
x2 = 0.3396	930	925.53	920.76	915.96	1376.1	1356.7	1335.2	1314
x2 = 0.3784	927.8	923.32	918.56	913.76	1370.3	1350.6	1328.9	1307.6
x2 = 0.4178	925.53	921.03	916.26	911.46	1364.5	1344.5	1322.6	1301.2
x2 = 0.462	922.91	918.41	913.62	908.82	1358.2	1337.8	1315.8	1294.2
x2 = 0.5009	920.56	916.03	911.24	906.44	1352.6	1332.1	1309.9	1288.3
x2 = 0.5486	917.59	913.03	908.24	903.43	1346.1	1325.3	1302.9	1281.1
x2 = 0.5814	915.51	910.91	906.13	901.31	1341.7	1320.7	1298.2	1276.3
x2 = 0.6379	911.8	907.17	902.35	897.53	1334.3	1313.2	1290.3	1268.3
x2 = 0.6899	908.28	903.58	898.75	893.91	1327.7	1306.4	1283.4	1261.3
x2 = 0.7389	904.83	900.08	895.23	890.37	1321.7	1299.7	1277	1254.8
x2 = 0.7804	901.82	897.02	892.14	887.26	1316.8	1294.6	1271.8	1249.6
x2 = 0.8345	897.76	892.89	887.96	883.04	1310.6	1288.1	1265.3	1242.9
x2 = 0.8929	893.19	888.23	883.23	878.25	1304.1	1281.4	1258.5	1236.1

[2]
Details	excess molar enthalpy [kcal/mol]
x2 = 0.0989	0.0098
x2 = 0.1475	0.014
x2 = 0.1926	0.017
x2 = 0.2415	0.0206
x2 = 0.2953	0.0231
x2 = 0.3416	0.0253
x2 = 0.3952	0.0268
x2 = 0.4426	0.0274
x2 = 0.4956	0.0276
x2 = 0.5425	0.0271
x2 = 0.5982	0.0257
x2 = 0.641	0.0244
x2 = 0.6825	0.0227
x2 = 0.7333	0.02
x2 = 0.7865	0.0167
x2 = 0.8359	0.0132
x2 = 0.8875	0.0093
x2 = 0.9299	0.00576
